# Values of other authors in PMC12655172, “Borylated 5-Membered Ring Iminosugars: Synthesis and Biological Evaluation for Glycosidase Inhibition and Anticancer Properties for Application in Boron Neutron Capture Therapy (BNCT)—Part 2” (Pharmaceuticals, 2025).
# What was measured:
# β-glucosidase (almond) = target: β-glucosidase (almond); parameters: method as in PMID 33228403; details: cited from earlier work
# amyloglucosidase = details: read-out: IC50 amyloglucosidase; cited from earlier work
# [1] = test system: β-D-galactosidase (E. coli); details: cited from earlier work
# [2] = test system: α-D-galactosidase (coffee bean); details: cited from earlier work
# [3] = test system: T1, α-D-mannosidase (Jack bean); details: cited from earlier work
# T1 construct: purchased Sigma-Aldrich; host or cells: Jack bean
# α-L-fucosidase = test system: α-L-fucosidase; parameters: method as in PMID 2706004; details: cited from earlier work
# [4] = target: α-glucosidase (endoplasmatic reticulum II); parameters: method as in PMID 19294724; details: cited from earlier work
# [5] = target: α-glucosidase (endoplasmatic reticulum I); parameters: method as in PMID 19294724; details: cited from earlier work
# α-D-glucosidase = target: α-D-glucosidase; parameters: method as in PMID 31557624; details: cited from earlier work
# [6] = test system: α-D-mannosidase (lysosomal acidic); parameters: method as in PMID 8457203; details: cited from earlier work
# [7] = test system: α-D-mannosidase (neutral); parameters: method as in PMID 8457203; details: cited from earlier work
# [8] = target: α-D-mannosidase (fruit fly lysosomal acidic); parameters: method as in PMID 29323461; details: cited from earlier work
# [9] = target: α-D-mannosidase (fruit fly Golgi II); parameters: method as in PMID 29323461; details: cited from earlier work
# [10] = test system: α-D-mannosidase (Golgi II); parameters: method as in PMID 8457203; details: cited from earlier work
# β-D-glucosidase (almond) [11] = test system: β-D-glucosidase (almond); parameters: method as in PMID 41011173; details: Table 3 type assay; cited from earlier work
# [12] = target: T2, β-D-glucosidase (bovine liver) (Bos taurus, UniProt F1MNT6); parameters: method as in PMID 41011173; details: cited from earlier work
# T2 sequence (F1MNT6 1-469): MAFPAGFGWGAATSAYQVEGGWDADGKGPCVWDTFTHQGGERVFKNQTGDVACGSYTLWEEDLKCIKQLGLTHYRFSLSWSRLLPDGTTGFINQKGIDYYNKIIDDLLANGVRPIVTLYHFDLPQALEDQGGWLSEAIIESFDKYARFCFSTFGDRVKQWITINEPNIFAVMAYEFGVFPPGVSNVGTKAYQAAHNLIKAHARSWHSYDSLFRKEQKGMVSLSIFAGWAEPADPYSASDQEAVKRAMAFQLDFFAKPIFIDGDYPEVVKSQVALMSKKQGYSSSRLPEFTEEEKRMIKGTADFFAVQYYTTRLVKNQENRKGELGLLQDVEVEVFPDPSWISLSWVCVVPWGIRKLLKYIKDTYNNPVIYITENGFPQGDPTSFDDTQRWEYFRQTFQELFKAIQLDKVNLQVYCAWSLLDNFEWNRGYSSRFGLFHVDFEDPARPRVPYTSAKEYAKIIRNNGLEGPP
# β-D-glucosidase (almond) [13] = test system: β-D-glucosidase (almond); parameters: method as in PMID 41011173; details: cited from earlier work
smiles,measurement,setting,value
OC[C@H]1NC[C@H](O)[C@@H](O)[C@@H]1O [1-DNJ],IC50,β-glucosidase (almond),[…]
same,IC50,amyloglucosidase,2.1 µM
"Cl.OC[C@@H](O)[C@H]1[C@H](O)[C@H](O)CN1Cc1ccccc1B(O)O [N-(2-Methylphenylboronic acid)-1,4-dideoxy-1,4-imino-D-talitol.HCl]",inhibition β-D-galactosidase (E. coli),[1],β-D-Galactosidase (E. coli) (44–55%)
same,inhibition α-D-galactosidase (coffee bean),[2],< 5%
same,inhibition α-D-mannosidase (Jack bean),[3],10%
"OC[C@@H](O)[C@@H]1[C@@H](O)[C@@H](O)CN1Cc1ccccc1 [N-Benzyl-1,4-dideoxy-1,4-imino-D-allitol]",inhibition α-L-fucosidase,α-L-fucosidase,α-L-Fucosidase (76%)
"Cl.OC[C@@H](O)[C@H]1[C@H](O)[C@H](O)CN1Cc1ccccc1 [N-Benzyl-1,4-dideoxy-1,4-imino-D-talitol.HCl]",inhibition β-D-galactosidase (E. coli),[1],poorly inhibited
same,inhibition α-D-galactosidase (coffee bean),[2],poorly inhibited
same,inhibition α-D-mannosidase (Jack bean),[3],poorly inhibited
CCCCN1C[C@H](O)[C@@H](O)[C@H](O)[C@H]1CO [N-Butyl-DNJ],IC50,[4],10.8 µM
same,IC50,[5],0.68 µM
"OC[C@@H](O)[C@H]1[C@H](O)[C@@H](O)CN1Cc1ccccc1 [N-benzyl-1,4-dideoxy-1,4-imino-D-galactitol]",IC50,α-D-glucosidase,40.6 µM
same,inhibition α-D-glucosidase,α-D-glucosidase,93.2%
"Cl.OC[C@@H](O)[C@@H]1[C@H](O)[C@H](O)CN1Cc1ccccc1 [N-benzyl-1,4-dideoxy-1,4-imino-D-mannitol.HCl]",inhibition α-D-mannosidase lysosomal acidic,[6],34%
same,inhibition α-D-mannosidase neutral,[7],44%
same,IC50,[8],1500 µM
same,IC50,[9],690 µM
same,inhibition α-D-mannosidase Golgi II,[10],72%
"OB(O)c1ccc(CN2C[C@@H](O)[C@H]3OC(O)[C@H](O)[C@H]32)cc1 (stereo partly drawn) [para 7, N-(4-methylphenylboronic acid)-3,6-dideoxy-3,6-imino-D-gulofuranose]",Percentage inhibition β-D-Glucosidase Almond,β-D-glucosidase (almond) [11],68.1%
same,inhibition % β-D-Glucosidase Bovine Liver,[12],38.8%
same,inhibition % β-D-Glucosidase Almond,β-D-glucosidase (almond) [13],43.6%
